Laboratory results reported in PMC9516332 (Frontiers in Oncology, 2022).

Columns and labels:
Assay in all cases: Kinase panel profiling at 1 µmol/L (MSA or IMAP), percentage inhibition
Type in all cases: biochemical
[1] = target: T1, panel of 255 wild-type kinases (Homo sapiens, UniProt P15735); settings: kinase PHKG2; 1 µmol/L single concentration; read-out: %-inhibition at 1 µmol/L, PHKG2
T1 sequence (P15735 1-406): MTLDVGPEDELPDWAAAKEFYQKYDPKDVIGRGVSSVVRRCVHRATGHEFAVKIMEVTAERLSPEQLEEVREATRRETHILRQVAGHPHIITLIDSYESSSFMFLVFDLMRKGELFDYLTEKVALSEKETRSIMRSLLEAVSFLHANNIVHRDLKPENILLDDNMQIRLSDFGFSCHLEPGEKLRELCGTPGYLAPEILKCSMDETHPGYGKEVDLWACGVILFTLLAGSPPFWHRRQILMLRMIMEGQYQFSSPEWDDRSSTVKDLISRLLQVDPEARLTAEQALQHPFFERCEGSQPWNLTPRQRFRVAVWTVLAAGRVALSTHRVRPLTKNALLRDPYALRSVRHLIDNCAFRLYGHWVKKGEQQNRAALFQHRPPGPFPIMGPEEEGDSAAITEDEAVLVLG

[2] = target: panel of 255 wild-type kinases (Homo sapiens, UniProt P23443); settings: p70S6K; 1 µmol/L single concentration; read-out: %-inhibition, p70S6K
[3] = target: panel of 255 wild-type kinases (Homo sapiens, UniProt Q8TDX7); settings: NEK7; 1 µmol/L single concentration; read-out: %-inhibition, NEK7
[4] = target: panel of 255 wild-type kinases (Homo sapiens, UniProt Q9HC98); settings: NEK6; 1 µmol/L single concentration; read-out: %-inhibition, NEK6
[5] = target: panel of 255 wild-type kinases (Homo sapiens, UniProt O94804); settings: kinase LOK; 1 µmol/L single concentration; read-out: %-inhibition at 1 µmol/L, LOK
[6] = target: panel of 255 wild-type kinases (Homo sapiens, UniProt Q8IY84); settings: NIM1K; 1 µmol/L single concentration; read-out: %-inhibition, NIM1K
[7] = target: T2, panel of 255 wild-type kinases (Homo sapiens, UniProt Q9NWZ3); settings: kinase IRAK4; 1 µmol/L single concentration; read-out: %-inhibition at 1 µmol/L, IRAK4
T2 sequence (Q9NWZ3 1-460): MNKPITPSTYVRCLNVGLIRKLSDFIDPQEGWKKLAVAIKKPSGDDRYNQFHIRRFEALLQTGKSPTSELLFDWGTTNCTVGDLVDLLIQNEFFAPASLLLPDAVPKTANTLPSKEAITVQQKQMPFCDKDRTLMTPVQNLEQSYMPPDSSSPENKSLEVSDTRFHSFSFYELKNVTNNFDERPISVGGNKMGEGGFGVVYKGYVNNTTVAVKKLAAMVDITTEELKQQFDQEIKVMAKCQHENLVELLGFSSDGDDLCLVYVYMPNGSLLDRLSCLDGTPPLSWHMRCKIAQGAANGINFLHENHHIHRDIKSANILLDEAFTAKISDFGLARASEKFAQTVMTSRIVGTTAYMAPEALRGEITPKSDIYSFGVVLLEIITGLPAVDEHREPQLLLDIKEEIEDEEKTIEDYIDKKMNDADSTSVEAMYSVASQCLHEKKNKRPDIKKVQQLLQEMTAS

[8] = target: panel of 255 wild-type kinases (Homo sapiens, UniProt P04629); settings: kinase TRKA; 1 µmol/L single concentration; read-out: %-inhibition at 1 µmol/L, TRKA
[9] = target: panel of 255 wild-type kinases (Homo sapiens, UniProt Q16620); settings: kinase TRKB; 1 µmol/L single concentration; read-out: %-inhibition at 1 µmol/L, TRKB
[10] = target: panel of 255 wild-type kinases (Homo sapiens, UniProt P16591); settings: kinase FER; 1 µmol/L single concentration; read-out: %-inhibition at 1 µmol/L, FER
[11] = target: panel of 255 wild-type kinases (Homo sapiens, UniProt Q14289); settings: kinase PYK2; 1 µmol/L single concentration; read-out: %-inhibition at 1 µmol/L, PYK2
[12] = target: T3, panel of 255 wild-type kinases (Homo sapiens, UniProt Q9BXA7); settings: kinase TSSK1; 1 µmol/L single concentration; read-out: %-inhibition at 1 µmol/L, TSSK1
T3 sequence (Q9BXA7 1-367): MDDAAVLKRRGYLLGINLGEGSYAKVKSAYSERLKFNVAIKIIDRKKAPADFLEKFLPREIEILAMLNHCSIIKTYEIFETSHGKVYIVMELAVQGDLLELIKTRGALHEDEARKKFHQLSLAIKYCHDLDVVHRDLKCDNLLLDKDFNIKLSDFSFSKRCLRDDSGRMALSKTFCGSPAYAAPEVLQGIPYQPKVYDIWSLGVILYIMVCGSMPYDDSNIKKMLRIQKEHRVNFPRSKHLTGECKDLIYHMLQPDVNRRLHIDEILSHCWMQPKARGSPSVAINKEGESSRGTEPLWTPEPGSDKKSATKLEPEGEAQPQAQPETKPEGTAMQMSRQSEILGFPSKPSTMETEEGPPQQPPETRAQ

[13] = target: T4, panel of 255 wild-type kinases (Homo sapiens, UniProt Q96KB5); settings: kinase PBK; 1 µmol/L single concentration; read-out: %-inhibition at 1 µmol/L, PBK
T4 sequence (Q96KB5 1-322): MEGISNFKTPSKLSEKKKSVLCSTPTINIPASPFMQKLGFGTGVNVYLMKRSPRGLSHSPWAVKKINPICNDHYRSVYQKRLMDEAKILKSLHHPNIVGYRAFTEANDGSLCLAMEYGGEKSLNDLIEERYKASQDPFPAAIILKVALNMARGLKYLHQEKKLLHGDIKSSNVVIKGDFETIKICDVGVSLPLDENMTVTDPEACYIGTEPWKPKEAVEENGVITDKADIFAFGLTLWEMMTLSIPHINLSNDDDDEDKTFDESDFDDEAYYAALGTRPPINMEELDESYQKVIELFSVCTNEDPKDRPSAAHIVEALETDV

Row | Compound | inhibition at 1 µM [1] | inhibition at 1 µM [2] | inhibition at 1 µM [3] | inhibition at 1 µM [4] | inhibition at 1 µM [5] | inhibition at 1 µM [6] | inhibition at 1 µM [7] | inhibition at 1 µM [8] | inhibition at 1 µM [9] | inhibition at 1 µM [10] | inhibition at 1 µM [11] | inhibition at 1 µM [12] | inhibition at 1 µM [13]
1 | C[C@H](Nc1ncnc2nc[nH]c12)c1cc2cccc(Cl)c2c(=O)n1-c1ccccc1 [duvelisib] | 0.785% | 6% | -0.791% | -1% | 0.582% | -3.41% | 1.13% | 9% | -0.401% | -1.81% | -3.37% | -4% | -1.84%
2 | COC(=O)N[C@@H](C)CNc1nccc(-c2cn(C(C)C)nc2-c2cc(Cl)cc(NS(C)(=O)=O)c2F)n1 [encorafenib] | -1.79% | 14% | 5% | -2.36% | 1.24% | -12% | -1.14% | -2.7% | 7.42% | 5% | 4% | 3% | 8%
3 | CN1CCN(c2ccc(C(=O)Nc3n[nH]c4ccc(Cc5cc(F)cc(F)c5)cc34)c(NC3CCOCC3)c2)CC1 [entrectinib] | 41% | 25% | -1.81% | -1.86% | 28% | -1.5% | 8% | – | – | 99% | 96% | 8% | -5.43%
4 | CCc1nc(C(N)=O)c(Nc2ccc(N3CCC(N4CCN(C)CC4)CC3)c(OC)c2)nc1NC1CCOCC1 [gilteritinib] | 59% | 79% | -2% | -2% | 100% | 29% | 79% | 100% | 98% | 99% | 93% | 95% | -2.54%
5 | CCN1CCN(c2ccc(Nc3cc(N(C)C(=O)Nc4c(Cl)c(OC)cc(OC)c4Cl)ncn3)cc2)CC1 [infigratinib] | 1.64% | 5.33% | -3.65% | -2.62% | 34% | -2.7% | -1.22% | 27% | 6% | 9.48% | 13% | 3.24% | -1.71%
6 | C[C@H]1Oc2cc(cnc2N)-c2c(nn(C)c2C#N)CN(C)C(=O)c2ccc(F)cc21 [lorlatinib] | 92% | 8% | 1.44% | -0.382% | 87% | 1.32% | -1.47% | – | – | – | – | 84% | 1.39%
